Test results from patent US7425548B2, “Materials and methods for immune system stimulation” (Variety Chidren's Hospital, priority 2004, dated 2008).
Read-outs that look alike come from different tables or passages of the source.

How the values were obtained:
normal lymphocytes [1] = assay: Oxidative stress (GSH/GSSG levels); type: cell-based, human; details: data not shown
normal lymphocytes [2] = assay: Quantification of cytokine and chemokine synthesis by ELISA; type: cell-based, human
Description: FIGS. 8A-8H show synthesis of cytokines and chemokine in RR1-induced normal lymphocytes. Normal lymphocytes from healthy volunteers were treated with RR1 (0-100 μg) at 37° C. for 24 hours in a CO2 incubator in RPMI medium. The supernatant medium was analyzed for the production of cytokines and chemokine in an ELISA procedure using reagent kits (BD Biosciences).
Immunostimulating Properties. To measure the immune stimulatory property of RR1, the activation of the different subsets of lymphocytes, syntheses of cytokines such as interleukin (IL)-1β, IL-2, IL-4, IL-6, IL-10, IL-12 p70 and p40, IL-18, interferon (IFN)-α and γ, Tumor Necrosis factor (TNF)-α and β, monocyte chemo-attractant protein (MCP)-1, synthesis of nitric oxide (NO), and the extent of oxidative stress elicited in human lymphocytes was analyzed. Normal lymphocytes were isolated by the histopaque density gradient method from fresh blood drawn from healthy volunteers and utilized for various assays. Human leukemic (CEM) and multidrug resistant (CEM/VLB) cell lines were grown in RPMI medium supplemented with 10% fetal bovine serum and antibiotics in 5% CO2 incubator at 37° C.
Quantification of Cytokine and Chemokine Synthesis. Cytokines such as IL-1β, IL-2, IL-4, IL-6, IL-10, IL-12p40, IL-12p70, IL-18, IFN-γ and TNF-α, β and chemokine, MCP-1 were quantified by ELISA procedure using kits from BD Biosciences, according to manufacturer's protocols. IFN-α was assayed using the ELISA kit of RESEARCH DIAGNOSTICS Inc. (New Jersey). In short, 50 μl of ELISA diluent is pipetted into antibody coated wells of 96 well plates followed by 100 μl of each standard and test samples, shaken for 5 seconds to mix the contents in the wells, covered with plate sealer and incubated for 2 hours at room temperature. After incubation, the contents of the wells were aspirated and washed five times with wash solution. After complete removal of the wash solution in the final wash, 100 μl of detection solution was added, covered with plate sealer, and incubated for 1 hour. The wells were washed 7 times with wash solution and added 100 μl of one step substrate reagent and incubated for 30 minutes in dark. The color development was stopped by adding 50 μl of stop solution and the absorbance were recorded at 450 nm with a reference wave length of 570 nm in a BIO-RAD Benchmark plate reader.

normal lymphocytes [3] = assay: Oxidative stress (GSH/GSSG levels); type: cell-based, human; details: for GSH / GSH/GSSG / GSSG: 24 hours
Description: Oxidative stress (GSH/GSSG levels). The measure of the reduced (GSH) as well as oxidized (GSSG) levels of glutathione and their ratio are useful indicators for oxidative stress. The levels of GSH and GSSG were assayed by a colorimetric method using Biotech GSH/GSSG-412 kit (Oxis Research, Portland, Oreg.) according to manufacturer's protocol. Briefly, normal blood samples from healthy donors were incubated with different concentrations of RR1 for 24 hours in a 5% CO2 incubator at 37° C. For GSSG, 100 μl of each of the treated sample was frozen at −70° C. for 4 hours, thawed and added 290 μl of 5% meta phosphoric acid (MPA). The samples were vortexed for 15-20 seconds and centrifuged at 1000×g for 10 minutes. MPA extract (50 μl) was added to 700 μl of GSSG buffer that was used for the calorimetric assay. For GSH measurement 50 μl of the whole blood was frozen at −70° C., thawed and added 350 μl of 5% MPA, vortexed for 15-20 seconds and centrifuged at 10,000×g for 10 minutes. MPA extract (50 μl) was added to 3 ml of the assay buffer and used for further analysis. MPA buffer mixture (200 μl) of each standard and sample was transferred to a spectrophotometer cuvette, added 200 μl of chromogen followed by 200 μl of enzyme in the order and incubated at room temperature for 5 minutes. Afterwards, 200 μl of NADPH was added into the cuvette and changes in the absorbance at 412 nm were recorded in a BECKMAN spectrophotometer. The reaction rates were plotted using the absorbance values and the levels of GSH and GSSG were determined.

Water solubility = type: physicochemical
Description: Isolation and characterization of RR1. […] The final RR1 compound, shown in FIG. 3, was isolated in about 0.1% yield of the total dry material used for extraction as a puffy solid that dissolved in water. […] Therefore, detailed polysaccharide analyses such as the glycosyl composition, linkage, molecular weight and conformation of the glucose units at the anomeric center were performed at the Complex Carbohydrate Research Center, University of Georgia, Athens. […] To perform glycosyl linkage analysis, the sample was permethylated three times by the method of Cikanu and Kereck (Ciucanu, I. and F. Kereck Carbohydr. Res., 1984, 131:209-217), hydrolyzed with 2 M trifluroacetic acid, reduced with NaBD4 and acetylated with acetic anhydride/pyridine and the resulted partially methylated alditol acetates (PMAA) were analyzed by GC/MS. […] The conformations at the anomeric center of the glucopyranosyl units were obtained based on the 500 MHz protonNMR spectra recorded in D2O and by comparison with the anomeric proton signals of standard samples. The molecular mass was obtained from the size exclusion chromatography using SUPELCO silica column (1.0×30 cm), eluting with 50 mM ammonium formate buffer at a rate of […]. and detected by the refractive index. […]

[4] = RR1 0-100 μg, 24 hours (FIGS. 8A-8H)

(1,4)-α-D-glucan [RR1]
amount of hydrogen peroxide (normal lymphocytes [1]): No significant elevation
synthesis of IFN-γ (normal lymphocytes [2]): 90.16 pg/mL
synthesis of IL-6 (normal lymphocytes [2]): 21833 pg/mL
synthesis of IL-12 p40 (normal lymphocytes [2]): 918.23 pg/mL
synthesis of IL-12 p70 (normal lymphocytes [2]): 50.19 pg/mL
synthesis of MCP-1 (normal lymphocytes [2]): 2307 pg/mL
production of IFN-α (normal lymphocytes [2]; 24 hours): did not induce
production of IL-2 (normal lymphocytes [2]; 24 hours): did not induce
production of IL-4 (normal lymphocytes [2]; 24 hours): did not induce
production of IL-10 (normal lymphocytes [2]; 24 hours): did not induce
production of TNF-β (normal lymphocytes [2]; 24 hours): did not induce
RR1 concentration at which the maximum IL-12 (p40) was recorded (normal lymphocytes [2]; FIG. 8C): 10 µg/mL
synthesis of IFN-γ (normal lymphocytes [2]; [4]): 90.16 pg
synthesis of IL-1β (normal lymphocytes [2]; [4]): 1080 pg
synthesis of IL-6 (normal lymphocytes [2]; [4]): 21833 pg
synthesis of IL-12 p40 (normal lymphocytes [2]; [4]): 918.23 pg
synthesis of IL-12 p70 (normal lymphocytes [2]; [4]): 50.19 pg
synthesis of IL-18 (normal lymphocytes [2]; [4]): 27.47 pg
synthesis of MCP-1 (normal lymphocytes [2]; [4]): 2307 pg
synthesis of TNF-α (normal lymphocytes [2]; [4]): 2225 pg
synthesis of IL-18 (normal lymphocytes [2]; at 100 pg/ml concentration): 27.47 pg/mL
synthesis of TNF-α (normal lymphocytes [2]; at 100 pg/ml concentration): 2225 pg/mL
GSH (normal lymphocytes [3]; RR1 5 μg/ml): 365.08 ± 3.81 µM
GSH/GSSG (normal lymphocytes [3]; RR1 5 μg/ml): 14.05 ± 0.41
GSSG (normal lymphocytes [3]; RR1 5 μg/ml): 22.77 ± 0.58 µM
GSH (normal lymphocytes [3]; RR1 10 μg/ml): 366.10 ± 0.97 µM
GSH/GSSG (normal lymphocytes [3]; RR1 10 μg/ml): 14.34 ± 0.35
GSSG (normal lymphocytes [3]; RR1 10 μg/ml): 22.67 ± 0.41 µM
GSH (normal lymphocytes [3]; RR1 50 μg/ml): 364.43 ± 0.10 µM
GSH/GSSG (normal lymphocytes [3]; RR1 50 μg/ml): 14.25 ± 0.40
GSSG (normal lymphocytes [3]; RR1 50 μg/ml): 22.75 ± 0.55 µM
oxidative stress in lymphocytes (normal lymphocytes [3]; indicated by GSH, GSSG and their ratio): does not produce any oxidative stress
solubility in water (Water solubility): soluble in water
